# According to patent US11319289B2, “5-hydroxy pyridine-based compound for use as P2X1 and P2X3 receptor antagonist and pharmaceutical composition comprising same” (GWANGJU INSTITUTE OF SCIENCE AND TECHNOLOGY, priority 2017, dated 2022):
# Values joined by “and” are separate entries in the source; they are usually repeats but may differ in a detail not shown here. Identical values can stand only once.
# Tests used:
# Assay type in all cases: cell-based
# [1] = target: T1, mouse P2X1 receptor (mP2X1) (Mus musculus, UniProt P51576); assay: Two-electrode voltage clamp assay, recombinant mP2X1 receptor in Xenopus oocytes; details: 10 μM compound, 2 μM ATP, mean±SEM n≥3 (footnote c); for inhibition at 10 µM: read-out: mP2X1 % inhibitory effect at 10 μM
# T1 construct: expressed in transfected cells; host or cells: Xenopus oocytes (cRNA microinjection)
# T1 sequence (P51576 1-399): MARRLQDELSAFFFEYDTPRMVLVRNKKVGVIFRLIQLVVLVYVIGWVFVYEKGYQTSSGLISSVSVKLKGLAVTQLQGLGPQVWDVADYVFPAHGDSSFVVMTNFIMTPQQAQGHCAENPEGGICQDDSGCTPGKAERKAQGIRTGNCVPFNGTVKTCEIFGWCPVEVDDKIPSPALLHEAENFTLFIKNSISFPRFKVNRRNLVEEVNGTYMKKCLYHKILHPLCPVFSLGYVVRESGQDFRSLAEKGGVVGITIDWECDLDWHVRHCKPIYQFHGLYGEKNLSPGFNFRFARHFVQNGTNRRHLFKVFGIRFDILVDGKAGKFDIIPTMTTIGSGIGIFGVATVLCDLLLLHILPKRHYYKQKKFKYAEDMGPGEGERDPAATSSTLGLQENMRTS
# Protocol: (§1) 1-1. Two-Electrode Voltage Clamp Assay for Recombinant mP2X1 and hP2X3 Receptors
# (§2) Xenopus oocytes were isolated and incubated with 270 U/mg of collagenase at 23 to 24° C. for 1.5 hours. Defolliculated oocytes were kept in Barth's solution at 18° C. After 1 day, the defolliculated oocytes were each microinjected cytosolically with mP2X1 and human P2X3 receptor cRNA ([…], 1 μg/mL), incubated for 24 hours at 18° C. in Barth's solution. The cRNA-injected oocytes were kept for 12 days at 4° C. ATP-activated membrane currents (Vh=−70 mV) were recorded from the cRNA-injected oocytes using the two-electrode voltage clamp technique (Axoclamp 2B amplifier). Voltage recording ([…] tip resistance) and current-recording microelectrodes (5 MΩ tip resistance) were filled with 3.0 M KCl. Oocytes were placed in an electrophysiological chamber continuously superfused with Ringer's solution (5 mL/min, at 18° C.) containing 110 mM NaCl, 2.5 mM KCl, 5 mM HEPES and 1.8 mM BaCl2, with pH adjusted to 7.5. To induce an evoked current, 2 μM ATP was superfused for 60 to 120 seconds and then washed for 20 min. For data analysis, the ATP-evoked current was normalized at pH 7.5. The compounds were introduced to the fixed oocytes 20 minutes prior to ATP exposure in the electrophysiological chamber. IC50 values (the concentration of the compound required to inhibit the ATP response by 50%) were determined by Hill plots designed using the Chemical Formula: log(I/Imax−1), where I is the current evoked by ATP in the presence of an antagonist. Data are presented as mean±SEM (n≥3) from different batches of oocytes.
# (§3) In order to investigate the structure-activity relationship (SAR) of the compounds synthesized in the present invention, the antagonistic activity was evaluated by a two-electrode voltage clamp (TEVC) assay in Xenopus oocytes expressing the recombinant mP2X1 or hP2X3, respectively. The hP2X7R antagonistic activity was assessed using an ethidium ion accumulation assay in human HEK293 cells stably expressing the recombinant human P2X7R.
# [2] = target: T2, human P2X7 receptor (hP2X7) (Homo sapiens, UniProt Q99572); assay: Ethidium bromide accumulation assay in hP2X7-expressing HEK293 cells; details: 10 μM compound with BzATP
# T2 construct: expressed in transfected cells
# T2 sequence (Q99572 1-595): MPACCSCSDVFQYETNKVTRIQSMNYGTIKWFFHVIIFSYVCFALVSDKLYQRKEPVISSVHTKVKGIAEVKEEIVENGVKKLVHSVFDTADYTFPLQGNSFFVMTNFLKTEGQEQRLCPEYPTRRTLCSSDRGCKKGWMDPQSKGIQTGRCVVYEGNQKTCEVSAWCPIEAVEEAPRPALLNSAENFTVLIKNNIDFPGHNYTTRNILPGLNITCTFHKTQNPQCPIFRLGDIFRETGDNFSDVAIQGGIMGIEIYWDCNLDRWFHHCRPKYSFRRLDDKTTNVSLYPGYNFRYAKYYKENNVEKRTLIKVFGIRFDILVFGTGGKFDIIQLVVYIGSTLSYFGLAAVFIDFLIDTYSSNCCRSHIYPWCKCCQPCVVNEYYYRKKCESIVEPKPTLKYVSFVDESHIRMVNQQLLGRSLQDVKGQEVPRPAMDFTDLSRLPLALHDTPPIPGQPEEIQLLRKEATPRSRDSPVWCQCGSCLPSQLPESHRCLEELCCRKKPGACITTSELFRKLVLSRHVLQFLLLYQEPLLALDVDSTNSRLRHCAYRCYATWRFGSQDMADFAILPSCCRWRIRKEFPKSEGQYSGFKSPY
# Protocol: 1-2. Ethidium Bromide Accumulation Assay in hP2X-Expressing HEK293 Cells
# HEK293 cells that are stably transfected with the human P2X7 receptor (P2X7R) were kept under a humidified atmosphere of 5% CO2 at 37° C. in DMEM supplemented with 10% (v/v) FBS, 2 mM L-glutamine and antibiotics (50 U/mL penicillin and 50 μg/ml streptomycin). BzATP-induced pore formation was measured using a fluorescence plate reader by measuring cellular absorption of ethidium in the hP2X7-expressing HEK293 cells. The hP2X7-expressing HEK293 cells were washed once with an appropriate assay buffer, and the buffer was also removed before subsequent analysis. All studies were performed at room temperature and the final assay volume was 100 μL. The cells were resuspended at 2.5×10^6 cells/mL in assay buffers consisting of 10 mM HEPES, 5 mM N-methyl-D-glucamine, 5.6 mM KCl, 10 mM D-glucose and 0.5 mM CaCl2 (pH 7.4) and supplemented with 280 mM sucrose or 140 mM NaCl.
# In order to determine the antagonistic activity of the 5-hydroxyl-pyridine derivatives of the present invention and the reference compound (AZD9056), these compounds were added to the cells at a concentration of 10 μM with BzATP without pre-incubation. The cells were incubated for 2 hours under a humidified atmosphere of 5% CO2 at 37° C., and the absorption of ethidium dye was observed by measuring fluorescence with a Bio-Tek instrument FL600 fluorescent plate reader (excitation wavelength of 530 nm and emission wavelength of 590 nm). The results are expressed as a percentage relative to the maximum cumulative amount of ethidium bromide when stimulated with BzATP alone.
# as §3
# [3] = target: T3, human P2X3 receptor (hP2X3) (Homo sapiens, UniProt P56373); assay: Two-electrode voltage clamp assay, recombinant hP2X3 receptor in Xenopus oocytes; details: Xenopus oocytes; for inhibition at 1 µM: 1 μM compound, 2 μM ATP, mean±SEM n≥3 (footnote b), read-out: hP2X3 % inhibitory effect at 1 μM; for IC50: 2 μM ATP-evoked current, mean±SEM n≥3 (footnote d)
# T3 construct: expressed in transfected cells; host or cells: Xenopus oocytes (cRNA microinjection)
# T3 sequence (P56373 1-397): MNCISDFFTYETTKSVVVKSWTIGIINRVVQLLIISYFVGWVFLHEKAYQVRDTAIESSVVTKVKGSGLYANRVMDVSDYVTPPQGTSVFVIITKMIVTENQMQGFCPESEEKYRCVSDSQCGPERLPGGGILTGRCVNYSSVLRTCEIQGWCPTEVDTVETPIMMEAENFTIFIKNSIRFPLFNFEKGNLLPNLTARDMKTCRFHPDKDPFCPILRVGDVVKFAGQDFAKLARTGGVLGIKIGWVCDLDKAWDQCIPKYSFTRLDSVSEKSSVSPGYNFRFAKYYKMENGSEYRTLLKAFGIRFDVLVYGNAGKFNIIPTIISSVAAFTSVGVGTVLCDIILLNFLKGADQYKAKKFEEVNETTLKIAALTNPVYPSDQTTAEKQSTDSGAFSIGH
# Protocol: as §1, §2, §3
SMILES,mP2X1 % inhibitory effect at 10 μM [1],hP2X7 % inhibition of ethidium bromide accumulation [2],inhibition at 1 µM [3] [%],inhibition at 10 µM [1] [%],IC50 [3]
"COc1ccc(CCc2nc(C)c(O)c(-c3nnn[nH]3)c2C(=O)O)cc1 [Compound 17, 5-Hydroxy-2-(4-methoxyphenethyl)-6-methyl-4-(1H-tetrazol-5-yl)nicotinic acid]",Inactive^c,inactive,27.3 ± 1.8,–,–
"COc1ccc(CCc2nc(C)c(O)c3c2C(=O)OC3=O)cc1 [Compound 18, 7-Hydroxy-4-(4-methoxyphenethyl)-6-methylfuro[3,4-c]pyridine-1,3-dione]",–,inactive,27.8,25.3,–
"COc1ccc(CCc2nc(C)c(O)c3c(=O)[nH][nH]c(=O)c23)cc1 [Compound 19, 8-Hydroxy-5-(4-methoxyphenethyl)-7-methyl-2,3-dihydropyrido[3,4-d]pyridazine-1,4-dione]",Inactive^c,inactive,16.3,–,–
"COc1ccc(CCc2cc(S(C)(=O)=O)c(O)c(C)n2)cc1 [Compound 20, 6-(4-Methoxyphenethyl)-2-methyl-4-(methylsulfonyl)pyridin-3-ol]",inactive^c,inactive,20.4,–,–
"COc1ccc(CCc2cc(C(=O)O)c(O)c(C)n2)cc1 [Compound 22a, 3-Hydroxy-6-(4-methoxyphenethyl)-2-methylisonicotinic acid]",Inactive^c,Inactive,–,–,681 ± 98 nM
"COc1ccc(CCc2nc(C)c(O)c(C(=O)O)c2C)cc1 [Compound 22b, 3-Hydroxy-6-(4-methoxyphenethyl)-2,5-dimethylisonicotinic acid]",Inactive^c,inactive,–,–,384 nM and 385 nM
"CCCc1nc(CCc2ccc(OC)cc2)c(C)c(C(=O)O)c1O [Compound 22c, 3-Hydroxy-6-(4-methoxyphenethyl)-5-methyl-2-propylisonicotinic acid]",–,Inactive,–,22.7,303 nM
"CCCc1nc(CCc2ccc(OC)cc2)c(C)c(C(N)=O)c1O [Compound 23, 5-Hydroxy-2-[2-(4-methoxyphenyl)ethyl]-3-methyl-6-propyl-pyridine-4-carboxamide]",Inactive^c,inactive,–,–,709 nM
"CCCc1nc(Cc2cccc(Oc3ccccc3)c2)c(C(=O)O)c(C(=O)O)c1O [Compound 27, 5-Hydroxy-2-(3-phenoxybenzyl)-6-propylpyridine-3,4-dicarboxylic acid]",–,Inactive,–,27.5 ± 4.5,301 nM
"CCCc1nc(Cc2cccc(Oc3ccccc3)c2)c(C)c(/C=C/C(=O)O)c1O [Compound 35, (E)-3-(3-Hydroxy-5-methyl-6-(3-phenoxybenzyl)-2-propylpyridin-4-yl)acrylic acid]",Inactive^c,inactive,< 50,–,–
"CCCc1nc(Cc2cccc(Oc3ccccc3)c2)c(C)c(C#N)c1O [Compound 38, 3-Hydroxy-5-methyl-6-(3-phenoxybenzyl)-2-propylisonicotinonitrile]",inactive^c,inactive,< 50,–,–
"CCCc1nc(Cc2cccc(Oc3ccccc3)c2)c(C)c(CN)c1O [Compound 41, 4-(Aminomethyl)-5-methyl-6-(3-phenoxybenzyl)-2-propylpyridin-3-ol]",inactive^c,inactive,< 50,–,–
"CCCc1nc(Cc2cccc(Oc3ccccc3)c2)c(C)c(CNS(C)(=O)=O)c1O [Compound 43, N-((3-Hydroxy-5-methyl-6-(3-phenoxybenzyl)-2-propylpyridin-4-yl)methyl)methanesulfonamide]",–,inactive,< 50,43.1 ± 12.9,–
